Measured values taken from paper PMC6331850, “Evaluation of the Cytotoxicity of Structurally Correlated p-Menthane Derivatives” (Molecules, 2015).
Values after ≈ are worked out from the molar mass of the structure shown.

Columns and labels:
[1] = system: HCT-116 (colon carcinoma); assay: MTT cytotoxicity assay, HCT-116; format: cell-based; settings: Homo sapiens, 25 μg/mL, 72 h incubation, mean of three independent experiments, read-out: Cell growth inhibition percentage, HCT-116 IG%
Procedure: (§1) The cytotoxicity of the 18 compounds was tested against OVCAR-8 (ovarian adenocarcinoma), HCT-116 (colon carcinoma), SF-295 (glioblastoma), and HL-60 (leukemia) human cancer cell lines, all obtained from the National Cancer Institute, Bethesda, MD, USA. Cells were grown in RPMI-1640 medium supplemented with 10% fetal bovine serum, 2 mM glutamine, 100 µg/mL streptomycin, and 100 U/mL penicillin, and incubated at 37 °C in a 5% CO2 atmosphere.
(§2) Tumor cell growth was determined by the ability of living cells to reduce the yellow dye 3-(4,5-dimethyl-2-thiazolyl)-2,5-diphenyl-2H-tetrazolium bromide (MTT; Sigma Chemical Co., St. Louis, MO, USA) to a purple formazan product, as described by Mossman. For all experiments, cells were seeded in 96-well plates (0.1 × 10^6 cells/mL in 100 μL medium). After 24 h, the 18 compounds (25 μg/mL), were dissolved in 0.7% dimethyl sulfoxide (DMSO), and were added to each well (three independent experiments, performed in triplicate). Then, the cells were incubated for 72 h at 37 °C in a 5% CO2 atmosphere. The experiment was performed as three independent experiments, using DMSO at 1%, and doxorubicin at […] as negative and positive controls, respectively. Doxorubicin, purity >98%; Sigma Chemical Co.).
(§3) At the end of incubation, the plates were centrifuged, and the medium was replaced by fresh medium (150 μL) containing 0.5 mg/mL MTT. Three hours later, the formazan product was dissolved in 150 μL DMSO, and absorbance was measured using a multiplate reader (DTX 880 Multimode Detector, Beckman Coulter Inc., Packard, ON, Canada). The treatment effects were expressed as the percentage of control absorbance of reduced dye at 595 nm. All absorbance values were converted into a cell growth inhibition percentage (GI%) by the following formula: [GI% = 100 − [(T/C) × 100%] (1) where C is the absorbance for the negative control, and T is the absorbance in the presence of the tested compound. […]

[2] = system: OVCAR-8 (ovarian adenocarcinoma); assay: MTT cytotoxicity assay, OVCAR-8; format: cell-based; settings: Homo sapiens, 25 μg/mL, 72 h incubation, mean of three independent experiments, read-out: Cell growth inhibition percentage, OVCAR-8 IG%
Procedure: as §1, §2, §3

[3] = system: SF-295 (glioblastoma); assay: MTT cytotoxicity assay, SF-295; format: cell-based; settings: Homo sapiens, 25 μg/mL, 72 h incubation, mean of three independent experiments, read-out: Cell growth inhibition percentage, SF-295 IG%
Procedure: as §1, §2, §3

[4] = system: OVCAR-8, HCT-116, and SF-295 human tumor cell lines; assay: MTT cytotoxicity assay, range over the three tumor cell lines; format: cell-based; settings: for inhibition at 25 µg/mL: read-out: GI, range over the three cell lines
Procedure: as §1, §2
At the end of incubation, the plates were centrifuged, and the medium was replaced by fresh medium (150 μL) containing 0.5 mg/mL MTT. Three hours later, the formazan product was dissolved in 150 μL DMSO, and absorbance was measured using a multiplate reader (DTX 880 Multimode Detector, Beckman Coulter Inc., Packard, ON, Canada). The treatment effects were expressed as the percentage of control absorbance of reduced dye at 595 nm. All absorbance values were converted into a cell growth inhibition percentage (GI%) by the following formula: [GI% = 100 − [(T/C) × 100%] (1) where C is the absorbance for the negative control, and T is the absorbance in the presence of the tested compound.
The compounds that caused greater degree of cell growth inhibition and which have not been described in the literature for cytotoxic activity against tumor cell lines were evaluated for their median inhibitory concentration able to induce 50% of maximal effect (IC50). […] In addition, the IC50 was determined against HL-60 only for the most cytotoxic compound 16.

[5] = system: HL-60 (leukemia); assay: MTT cytotoxicity assay, HL-60; format: cell-based; settings: Homo sapiens, 72 h incubation, read-out: IC50 (95% confidence interval), HL-60
Procedure: as §1
Tumor cell growth was determined by the ability of living cells to reduce the yellow dye 3-(4,5-dimethyl-2-thiazolyl)-2,5-diphenyl-2H-tetrazolium bromide (MTT; Sigma Chemical Co., St. Louis, MO, USA) to a purple formazan product, as described by Mossman. […]
as §3

[6] = system: mouse erythrocytes; assay: Hemolytic assay; format: cell-based; settings: up to highest tested concentration 500 μg/mL; data not shown
Procedure: The test was performed in 96-well plates using a 2% mouse erythrocyte suspension in 0.85% NaCl containing 10 mm CaCl2, following the method as described by Jimenez and collaborators. Various concentrations of compound 16 (0–500 µg/mL) were added to the suspension of red blood cells obtained from mice according to methodology adapted from Kang and collaborators, Pita and collaborators, and Bezerra and collaborators. The tubes with the compound 16 erythrocyte mixtures were incubated on a mixer for 60 min and then centrifuged at 3000 rpm for 5 min. […] After incubation at room temperature for 30 min and centrifugation, the supernatant was removed and the liberated hemoglobin was measured spectrophotometrically as the absorbance at 540 nm.

[7] = system: HL-60 cells; assay: Cell viability, trypan blue dye exclusion test; format: cell-based, human; settings: 0.32, 0.64, 1.28 µg/mL; 24 h incubation
Procedure: The cell viability was determined by the trypan blue dye exclusion test. HL-60 cells were seeded (0.3 × 10^6 cells/mL) in absence or presence of different concentrations of compound 16 (0.32, 0.64, and 1.28 µg/mL). After the incubation period of 24 h, 90 µL were removed from the cell suspension and added to 10 µL of trypan blue. Viable and non-viable cells were differentiated and counted in a Neubauer chamber.

[8] = system: HL-60 cells; assay: Morphological analysis by fluorescence microscopy (acridine orange/ethidium bromide); format: cell-based, human; settings: 24 h
Procedure: HL-60 cells were pelleted and re-suspended in 20 µL of PBS. Then, 1 µL of aqueous acridine orange/ethidium bromide solution (AO/EB, 100 µg/mL) was added, and the cells were observed under a fluorescence microscope. Three hundred cells were counted per sample and classified as viable, apoptotic or necrotic.

[9] = system: HL-60 cells; assay: Morphological analysis with hematoxylin-eosin staining; format: cell-based, human; settings: 0.32, 0.64, 1.28 µg/mL; 24 h incubation
Procedure: For morphological cell analysis, we used hematoxylin-eosin and examined using light microscopy. HL-60 cells were seeded (0.3 × 10^6 cells/mL) in the absence or presence of different concentrations of compound 16 (0.32, 0.64 and 1.28 µg/mL). After an incubation period of 24 h, 50 µL of cell suspension were transferred to cytospin slides, fixed with metanol for 60 s, and stained with hematoxylin-eosin [43].

[10] = Homo sapiens, 72 h, 25 µg/mL, MTT, 72 h, HCT-116, OVCAR-8, SF-295

| Compound | inhibition at 25 µg/mL [1] [%] | inhibition at 25 µg/mL [2] [%] | inhibition at 25 µg/mL [3] [%] | inhibition at 25 µg/mL [4, 10] [%] | other results |
| --- | --- | --- | --- | --- | --- |
| C=C(C)[C@@H]1CCC2(C)OC2C1 (single isomer, unassigned; (+)) [Compound 12, (+)-Limonene 1,2-epoxide] | 73.1 | 93.1 | 58.5 | < 50 | fold more cytotoxic than 5 (GI ratio) ([4]; compared with (−)-carvone epoxide (5), 25 µg/mL): 2.5- to 11 fold |
| CC1=CC[C@@H](C(C)(C)O)CC1O (single isomer, unassigned; (-)) [Compound 13, (−)-Sobrerol] | 9.78 | 41.4 | 34.2 | – | – |
| CC1([C@@H]2CC=C(C=O)CC2)CO1 (single isomer, unassigned; (-)) [Compound 16, (−)-Perillaldehyde 8,9-epoxide] | 98.6 | 96.3 | 99.9 | 96.3 to 99.9 | IC50 [5]: 0.64 µg/mL (≈ 3.85 µM); IC50 ([4]; Homo sapiens, MTT, 72 h, HCT-116, OVCAR-8, SF-295): 1.03 to 1.75 µg/mL (≈ 6.2 to 10.5 µM); hemolysis (lysis of mouse erythrocytes) [6]: not hemolytic; effect on number of viable / non-viable cells [7]: reduction in the number of viable cells; cell death process, three concentrations tested ([8]; 0.32, 0.64, 1.28 µg/mL, Figures 3 and 4): cell death by apoptosis; cell morphology, acridine orange/ethidium bromide ([8]; 0.32, 0.64, 1.28 µg/mL, concentration-dependent, p < 0.05): morphology consistent with apoptosis and necrosis; cell death process at the higher doses ([8]; doses of 0.64 and 1.28): necrotic cell death; cell morphology, hematoxylin-eosin [9]: morphology consistent with apoptosis |
| C=C(C)[C@@H]1CC=C(C)C(=O)C1 [Compound 1, (−)-Carvone] | 11.9 | 2.28 | 12.3 | – | – |
| C=C(C)[C@H]1CC=C(C)C(=O)C1 [Compound 2, (+)-Carvone] | 46.1 | 48.1 | 34.4 | < 50 | – |
| CC1=CC[C@@H](C(C)(C)O)CC1=O [Compound 3, (−)-8-Hydroxycarvotanacetone] | 75.2 | 94 | 61.6 | 61.6 to 94 | GI, range over the three cell lines ([4]; 25 µg/mL, MTT, 72 h, HCT-116, OVCAR-8, SF-295): 61.59% to 94.01% |
| CC1=CC[C@H](C(C)(C)O)CC1=O [Compound 4, (+)-8-Hydroxycarvotanacetone] | 4.76 | 3.12 | 16.4 | – | – |
| C=C(C)[C@@H]1CC(=O)[C@@]2(C)O[C@H]2C1 [Compound 5, (−)-Carvone epoxide] | 29.2 | 8.21 | 10.9 | – | – |
| C=C(C)[C@@H]1C[C@H](O)[C@]2(C)O[C@@H]2C1 [Compound 6, (+)-Carveol epoxide] | 12.4 | 4.58 | 35.4 | – | – |
| C=C(C)[C@@H]1CC=C(C)[C@H](O)C1 [Compound 7, (−)-cis-carveol] | 9 | 3.61 | 21.2 | – | – |
| CC(=O)OC(C)(C)[C@@H]1CC=C(C)C(=O)C1 [Compound 8, (−)-8-Acetoxycarvotanacetone] | 10.4 | 1.62 | 30.5 | – | – |
| CC(C)=C1CC[C@@H](C)CC1=O [Compound 9, (+)-Pulegone] | 10.2 | 14.4 | 27.4 | – | – |
| C[C@@H]1CCC2(OC2(C)C)C(=O)C1 (stereo partly drawn) [Compound 10, (R)-pulegone oxide] | 43.2 | 17.6 | 16 | – | – |
| C=C(C)[C@@H]1CC[C@@H](C)CC1=O [Compound 11, (−)-trans-isopulegone] | 19 | 5.98 | 7.56 | – | – |
| C=C(C)[C@@H]1CC=C(CO)CC1 [Compound 14, (S)-(−)-perillyl alcohol] | 95.8 | 91.7 | 90.9 | 90.9 to 95.8 | – |
| C=C(C)[C@@H]1CC=C(C=O)CC1 [Compound 15, (−)-Perillaldehyde] | 83 | 70.2 | 59.3 | 59.3 to 83 | – |
| C=C(C)[C@@H]1CC=C(COC(C)=O)CC1 [Compound 17, (−)-Perillyl acetate] | 14.2 | 3.06 | 16.4 | – | – |
| C=C(C)[C@@H]1CC=C(COC(=O)c2ccccc2)CC1 [Compound 18, (S)-perillyl benzoate] | 5.02 | 2.86 | 4.53 | – | – |
| COc1cccc2c1C(=O)c1c(O)c3c(c(O)c1C2=O)C[C@@](O)(C(=O)CO)C[C@@H]3O[C@H]1C[C@H](N)[C@H](O)[C@H](C)O1 [Doxorubicin, reference compound] | 99.2 | 100 | 99.6 | – | – |
